The values below come from the NIST ThermoML archive (doi:10.1016/j.fluid.2015.03.040).

A short description of data set [1]: refractive index (Na D-line) (dimensionless). As to conditions: 298.15 K; 101.33 kPa; Liquid; Standard Abbe refractometry.
For data set [2] the following is noted: 298.15 K; for surface tension liquid-gas: Maximal bubble pressure; for mass density: 101.33 kPa, Liquid, Vibrating tube method.
For data set [3] the following is noted: 101 kPa, Liquid mixture 1, Drop volume.

Numbers after ± are expanded uncertainties.

For orientation: refractive index means the speed of light in vacuum divided by its phase velocity in the sample. Usually surface tension liquid-gas stands for the work needed to enlarge the surface of a liquid by unit area. In general, mass density refers to the mass of a sample divided by its volume. Take `CCOC(C)(C)C` [2-ethoxy-2-methylpropane]: the refractive index in data set [1] was determined as 1.37468 ± 0.00031. In data set [2], the surface tension liquid-gas is 19.73 ± 0.17 mN/m and the mass density stood at 736.65 ± 0.14 kg/m3.
Consider `CCOC(C)(C)C` [2-ethoxy-2-methylpropane] + O, for which the interfacial tension in data set [3] (278.15 K) was found to be 14 ± 0.11 mN/m; in data set [3] (288.15 K), 15.5 ± 0.12 mN/m; in data set [3] (298.15 K), 16.6 ± 0.12 mN/m; in data set [3] (308.15 K), 17.8 ± 0.13 mN/m; in data set [3] (318.15 K), 18.7 ± 0.13 mN/m; in data set [3] (328.15 K), 19.3 ± 0.14 mN/m.
As for `CCC(C)(C)OC` [2-methoxy-2-methylbutane], the refractive index in data set [1] came out at 1.38736 ± 0.00032. Besides, in data set [2], the surface tension liquid-gas stood at 20.3 ± 0.17 mN/m and the mass density is 765.91 ± 0.14 kg/m3.
`CCC(C)(C)OC` [2-methoxy-2-methylbutane] + O: the interfacial tension is 12.2 ± 0.1 mN/m in data set [3] (278.15 K); 13.2 ± 0.11 mN/m in data set [3] (288.15 K); 14.5 ± 0.11 mN/m in data set [3] (298.15 K); 15.5 ± 0.12 mN/m in data set [3] (308.15 K); 16.3 ± 0.12 mN/m in data set [3] (318.15 K); 17 ± 0.13 mN/m in data set [3] (328.15 K). In addition, in data set [3] (338.15 K), the interfacial tension was found to be 17.5 ± 0.13 mN/m.
Consider `COC(C)(C)C` [2-methoxy-2-methylpropane], for which the refractive index in data set [1] amounted to 1.36764 ± 0.00031. In addition, in data set [2], the surface tension liquid-gas was found to be 17.5 ± 0.16 mN/m and the mass density is 735.31 ± 0.14 kg/m3.
In the case of `COC(C)(C)C` [2-methoxy-2-methylpropane] + O, the interfacial tension in data set [3] (278.15 K) amounted to 7.8 ± 0.08 mN/m; in data set [3] (288.15 K), 8.83 ± 0.09 mN/m; in data set [3] (298.15 K) it was 9.8 ± 0.09 mN/m; in data set [3] (308.15 K), 10.8 ± 0.1 mN/m; in data set [3] (318.15 K), 11.7 ± 0.1 mN/m.
`CCCCO` [butan-1-ol] + O: the interfacial tension stood at 1.49 ± 0.05 mN/m in data set [3] (278.15 K); 1.63 ± 0.05 mN/m in data set [3] (288.15 K); 1.68 ± 0.05 mN/m in data set [3] (298.15 K); 1.69 ± 0.05 mN/m in data set [3] (308.15 K); 1.63 ± 0.05 mN/m in data set [3] (318.15 K); 1.54 ± 0.05 mN/m in data set [3] (328.15 K). The interfacial tension in data set [3] (338.15 K) is 1.39 ± 0.05 mN/m; in data set [3] (348.15 K) it was 1.2 ± 0.05 mN/m; in data set [3] (358.15 K), 1.04 ± 0.05 mN/m.
In the case of `CC(C)OC(C)C` [diisopropyl ether], in data set [1], the refractive index is 1.3665 ± 0.00031. In data set [2], the surface tension liquid-gas was found to be 16.9 ± 0.16 mN/m and the mass density turned out to be 718.89 ± 0.15 kg/m3.
Take `CC(C)OC(C)C` [diisopropyl ether] + O: the interfacial tension in data set [3] (278.15 K) is listed as 15.2 ± 0.12 mN/m; in data set [3] (288.15 K), 16.3 ± 0.12 mN/m; in data set [3] (298.15 K), 17.7 ± 0.13 mN/m; in data set [3] (308.15 K), 18.7 ± 0.13 mN/m; in data set [3] (318.15 K) it was 19.7 ± 0.14 mN/m; in data set [3] (328.15 K) it was 21.1 ± 0.15 mN/m.
Consider `CCCCCCCO` [heptan-1-ol], for which the refractive index in data set [1] was 1.42384 ± 0.00031. For the same compound, in data set [2], the surface tension liquid-gas amounted to 27.4 ± 0.21 mN/m and the mass density turned out to be 818.93 ± 0.11 kg/m3.
For `CCCCCCCO` [heptan-1-ol] + O, the interfacial tension worked out at 6.61 ± 0.08 mN/m in data set [3] (278.15 K); 7.09 ± 0.08 mN/m in data set [3] (288.15 K); 7.4 ± 0.08 mN/m in data set [3] (298.15 K); 7.56 ± 0.08 mN/m in data set [3] (308.15 K); 7.73 ± 0.08 mN/m in data set [3] (318.15 K); 7.96 ± 0.08 mN/m in data set [3] (328.15 K). The interfacial tension stood at 7.9 ± 0.08 mN/m in data set [3] (338.15 K), 7.82 ± 0.08 mN/m in data set [3] (348.15 K) and 7.74 ± 0.08 mN/m in data set [3] (358.15 K).
Turning to `CCCCCCO` [hexan-1-ol] + O, the interfacial tension in data set [3] (278.15 K) was found to be 5.77 ± 0.07 mN/m; in data set [3] (288.15 K), 6.06 ± 0.07 mN/m; in data set [3] (298.15 K), 6.29 ± 0.08 mN/m; in data set [3] (308.15 K), 6.16 ± 0.08 mN/m; in data set [3] (318.15 K), 6.18 ± 0.08 mN/m; in data set [3] (328.15 K), 6.29 ± 0.08 mN/m. For the same compound, the interfacial tension in data set [3] (338.15 K) was 6.14 ± 0.08 mN/m; in data set [3] (348.15 K), 6 ± 0.07 mN/m.
With `CCCCCCCCO` [octan-1-ol], in data set [1], the refractive index was 1.42884 ± 0.00031. For the same compound, in data set [2], the surface tension liquid-gas was 28 ± 0.2 mN/m and the mass density came out at 822.25 ± 0.11 kg/m3.
`CCCCCCCCO` [octan-1-ol] + O: the interfacial tension in data set [3] (278.15 K) came out at 6.99 ± 0.08 mN/m; in data set [3] (288.15 K), 7.53 ± 0.08 mN/m; in data set [3] (298.15 K), 7.97 ± 0.08 mN/m; in data set [3] (308.15 K) it was 8.41 ± 0.09 mN/m; in data set [3] (318.15 K), 8.62 ± 0.09 mN/m; in data set [3] (328.15 K) it was 8.67 ± 0.09 mN/m. Besides, the interfacial tension in data set [3] (338.15 K) was 8.81 ± 0.09 mN/m.
`CCCCCO` [pentan-1-ol]: in data set [1], the refractive index turned out to be 1.40941 ± 0.00032. Besides, in data set [2], the surface tension liquid-gas came to 24.7 ± 0.2 mN/m and the mass density is reported as 810.89 ± 0.12 kg/m3.
Regarding `CCCCCO` [pentan-1-ol] + O, the interfacial tension in data set [3] (278.15 K) worked out at 3.96 ± 0.07 mN/m; in data set [3] (288.15 K) it was 4.24 ± 0.07 mN/m; in data set [3] (298.15 K) it was 4.35 ± 0.07 mN/m; in data set [3] (308.15 K) it was 4.5 ± 0.07 mN/m; in data set [3] (318.15 K), 4.51 ± 0.07 mN/m; in data set [3] (328.15 K), 4.43 ± 0.07 mN/m. In addition, the interfacial tension worked out at 4.37 ± 0.07 mN/m in data set [3] (338.15 K), 4.21 ± 0.07 mN/m in data set [3] (348.15 K) and 3.94 ± 0.07 mN/m in data set [3] (358.15 K).
On to `C1CCOCC1` [tetrahydropyran], for which the refractive index in data set [1] is 1.42004 ± 0.00031. In data set [2], the surface tension liquid-gas amounted to 28 ± 0.21 mN/m and the mass density is on record as 879.44 ± 0.09 kg/m3.
With `C1CCOCC1` [tetrahydropyran] + O, the interfacial tension in data set [3] (278.15 K) was 4.64 ± 0.07 mN/m; in data set [3] (288.15 K) it was 5.19 ± 0.07 mN/m; in data set [3] (298.15 K), 5.78 ± 0.07 mN/m; in data set [3] (308.15 K), 6.35 ± 0.08 mN/m; in data set [3] (318.15 K), 6.75 ± 0.08 mN/m; in data set [3] (328.15 K) it was 7.28 ± 0.08 mN/m. Also, the interfacial tension in data set [3] (338.15 K) is 7.45 ± 0.08 mN/m.
Consider `O` [water], for which the refractive index in data set [1] came to 1.33374 ± 0.00031. In addition, in data set [2], the surface tension liquid-gas came to 71.94 ± 0.41 mN/m and the mass density came out at 996.7 ± 0.04 kg/m3.
